First: CC(=O)Oc1cc(C(C)C)c(NC(=O)CN2CCN(CCSc3nc4ccccc4o3)CC2)c(C(C)C)c1 [Example 73, 2-[4-[2-(benzoxazol-2-ylthio)ethyl]piperazin-1-yl]-N-(4-acetoxy-2,6-diisopropylphenyl)acetamide]
Second: COc1cc(C(C)C)c(NC(=O)CN2CCN(CCSc3nc4ccccc4o3)CC2)c(C(C)C)c1 [Example 75, 2-[4-[2-(benzoxazol-2-ylthio)ethyl]piperazin-1-yl]-N-(2,6-diisopropyl-4-methoxyphenyl)acetamide]
The melting point of the first is higher: 126 to 129 °C for the first, 115 to 117 °C for the second.

Compared with `CC(C)c1cc(OS(C)(=O)=O)cc(C(C)C)c1NC(=O)CN1CCN(CCSc2nc3ccccc3o2)CC1` [Example 74, 2-[4-[2-(benzoxazol-2-ylthio)ethyl]piperazin-1-yl]-N-(2,6-diisopropyl-4-mesyloxyphenyl)acetamide], `CCOC(=O)COc1cc(C(C)C)c(NC(=O)CN2CCN(CCSc3nc4ccccc4o3)CC2)c(C(C)C)c1` [Example 77, 2-[4-[2-(benzoxazol-2-ylthio)ethyl]piperazin-1-yl]-N-[2,6-diisopropyl-4-ethoxycarbonylmethyloxyphenyl)acetamide] is higher in melting point: 115 to 117 °C for the first, 118 to 120 °C for the second.

First: CCOCCOc1cc(C(C)C)c(NC(=O)CN2CCN(CCSc3nc4ccccc4o3)CC2)c(C(C)C)c1 [Example 78, 2-[4-[2-(benzoxazol-2-ylthio)ethyl]piperazin-1-yl]-N-[2,6-diisopropyl-4-(2-ethoxyethyl)oxyphenyl)acetamide]
Second: COc1cc(C(C)C)c(NC(=O)CN2CCN(CCSc3nc4cccc(C(C)=O)c4o3)CC2)c(C(C)C)c1 [Example 93, 2-[4-[2-(7-acetylbenzoxazol-2-ylthio)ethyl]piperazin-1-yl]-N-(2,6-diisopropyl-4-methoxyphenyl)acetamide]
The melting point of the first is lower: 92 to 95 °C for the first, 185 to 186 °C for the second.

First: CC(C)c1cccc(C(C)C)c1NC(=O)NCCN1CCN(CCSc2nc3ccccc3o2)CC1 [Example 79, N-[2-[4-[2-(benzoxazol-2-ylthio)-ethyl]piperazin-1-yl]ethyl]-N′-(2,6-diisopropylphenyl)urea]
Second: CC(C)c1cccc(C(C)C)c1NC(=O)NCCN1CCN(CCSc2nc3ncccc3o2)CC1 [Example 83, N-[2-[4-[2-(oxazolo[4,5-b]pyridine-2-ylthio)ethyl]piperazin-1-yl]ethyl]-N′-(2,6-diisopropylphenyl)urea]
The melting point of the first is lower: 152 to 153 °C for the first, 175 to 176 °C for the second.

First: CC(C)c1cccc(C(C)C)c1NC(=O)NCCN1CCN(CCSc2nc3ccccc3[nH]2)CC1 [Example 80, N-[2-[4-[2-(benzimidazol-2-ylthio)ethyl]piperazin-1-yl]ethyl]-N′-(2,6-diisopropylphenyl)urea]
Second: CC(C)c1cccc(C(C)C)c1NC(=O)NCCN1CCN(CCSc2nc3ccccc3s2)CC1 [Example 81, N-[2-[4-[2-(benzothiazole-2-ylthio)ethyl]piperazin-1-yl]ethyl]-N′-(2,6-diisopropylphenyl)urea]
The melting point of the first is lower: 120 to 122 °C for the first, 147 to 149 °C for the second.

`COC(=O)c1cccc2nc(SCCN3CCN(CCNC(=O)Nc4c(C(C)C)cccc4C(C)C)CC3)oc12` [Example 82, N-[2-[4-[2-(7-methoxycarbonylbenzoxazol-2-ylthio)ethyl]piperazin-1-yl]ethyl]-N′-(2,6-diisopropylphenyl)urea] and `COC(=O)c1ccc2nc(SCCN3CCN(CC(=O)Nc4c(C(C)C)cccc4C(C)C)CC3)oc2c1C(=O)OC` [Example 99, 2-[4-[2-(6,7-bis(methoxycarbonyl)benzoxazol-2-ylthio]ethyl]piperazin-1-yl]-N-(2,6-diisopropylphenyl)acetamide] cannot be ordered by melting point: 186 to 188 °C for the first, 186 to 187 °C for the second.

First: COc1cc(C(C)C)c(NC(=O)CN2CCN(CCSc3nc4cccc(C(F)(F)F)c4o3)CC2)c(C(C)C)c1 [Example 86, 2-[4-[2-(7-trifluoromethylbenzoxazol-2-ylthio)ethyl]piperazin-1-yl]-N-(2,6-diisopropyl-4-methoxyphenyl)acetamide]
Second: COc1cc(C(C)C)c(NC(=O)CN2CCN(CCSc3nc4cccc([N+](=O)[O-])c4o3)CC2)c(C(C)C)c1 [Example 105, 2-[4-[2-(7-nitrobenzoxazol-2-ylthio)ethyl]-piperazin-1-yl]-N-(2,6-diisopropyl-4-methoxyphenyl)acetamide]
The melting point of the first is lower: 122 to 123 °C for the first, 165 to 166 °C for the second.

Compared with `CC(C)c1ccc([N+](=O)[O-])c(C(C)C)c1NC(=O)CN1CCN(CCSc2nc3cccc(C(F)(F)F)c3o2)CC1` [Example 87, 2-[4-[2-(7-trifluoromethylbenzoxazol-2-ylthio)ethyl]piperazin-1-yl]-N-(2,6-diisopropyl-3-nitrophenyl)acetamide], `CC(C)c1cccc(C(C)C)c1NC(=O)CN1CCN(CCSc2nc3cccc([N+](=O)[O-])c3o2)CC1` [Example 104, 2-[4-[2-(7-nitrobenzoxazol-2-ylthio)ethyl]-piperazin-1-yl]-N-(2,6-diisopropylphenyl)acetamide] is higher in melting point: 115 to 117 °C for the first, 153 to 155 °C for the second.

First: CCSc1cc(C)nc(SCC)c1NC(=O)CN1CCN(CCSc2nc3cccc(C(F)(F)F)c3o2)CC1 [Example 89, 2-[4-[2-(7-trifluoromethylbenzoxazol-2-ylthio)ethyl]piperazin-1-yl]-N-[2,4-bis(ethylthio)-6-methyl-3-pyridyl]acetamide]
Second: CCSc1cc(C)nc(SCC)c1NC(=O)CN1CCN(CCSc2nc3ccc(COC)c(COC)c3o2)CC1 [Example 101, 2-[4-[2-(6,7-bis(methoxymethyl)benzoxazol-2-ylthio)ethyl]piperazin-1-yl]-N-(2,4-bis(ethylthio)-6-methyl-3-pyridyl)acetamide]
The melting point of the first is lower: 107 to 108 °C for the first, 118 to 120 °C for the second.

First: CC(C)c1cccc(C(C)C)c1NC(=O)CN1CCCN(CCCSc2nc3cccc(C(F)(F)F)c3o2)CC1 [Example 91, 2-[4-[3-(7-trifluoromethylbenzoxazol-2-ylthio)propyl]homopiperazin-1-yl]-N-(2,6-diisopropylphenyl)acetamide]
Second: CC(=O)c1cccc2nc(SCCCN3CCCN(CC(=O)Nc4c(C(C)C)cccc4C(C)C)CC3)oc12 [Example 94, 2-[4-[3-(7-acetylbenzoxazol-2-ylthio)propyl]homopiperazin-1-yl]-N-(2,6-diisopropylphenyl)acetamide]
The melting point of the first is lower: 77 to 79 °C for the first, 86 to 88 °C for the second.

Compared with `CC(C)c1cccc(C(C)C)c1NC(=O)CN1CCN(CCSc2nc3cccc(C(C)(C)C)c3o2)CC1` [Example 95, 2-[4-[2-(7-tert-butylbenzoxazol-2-ylthio)ethyl]piperazin-1-yl]-N-(2,6-diisopropylphenyl)acetamide], `CSc1cccc2nc(SCCN3CCN(CC(=O)Nc4c(C(C)C)cccc4C(C)C)CC3)oc12` [Example 112, 2-[4-[2-(7-methylthiobenzoxazol-2-ylthio)ethyl]piperazin-1-yl]-N-(2,6-diisopropylphenyl)acetamide] is lower in melting point: 138 to 140 °C for the first, 120 to 121 °C for the second.

First: Cc1c(Cl)cc(C(C)C)c2oc(SCCN3CCN(CC(=O)Nc4c(C(C)C)cccc4C(C)C)CC3)nc12 [Example 97, 2-[4-[2-(5-chloro-7-isopropyl-4-methylbenzoxazol-2-ylthio)ethyl]piperazin-1-yl]-N-(2,6-diisopropylphenyl)acetamide]
Second: COc1ccc(C(C)C)c(NC(=O)CN2CCN(CCCSc3nc4c(C)c(Cl)cc(C(C)C)c4o3)CC2)c1C(C)C [Example 110, 2-[4-[3-(5-chloro-7-isopropyl-4-methylbenzoxazol-2-ylthio)propyl]piperazin-1-yl]-N-(2,6-diisopropyl-3-methoxyphenyl)acetamide]
The melting point of the first is higher: 162 to 163 °C for the first, 126 to 127 °C for the second.

Compared with `COCc1ccc2nc(SCCN3CCN(CC(=O)Nc4c(C(C)C)cccc4C(C)C)CC3)oc2c1COC` [Example 100, 2-[4-[2-(6,7-bis(methoxymethyl)benzoxazol-2-ylthio]ethyl]piperazin-1-yl]-N-(2,6-diisopropylphenyl)acetamide], `CC(C)c1cccc(C(C)C)c1NC(=O)CN1CCN(CCSc2nc3cccc(CO)c3o2)CC1` [Example 102, 2-[4-[2-(7-hydroxymethylbenzoxazol-2-ylthio]ethyl]piperazin-1-yl]-N-(2,6-diisopropylphenyl)acetamide] is higher in melting point: 96 to 97 °C for the first, 138 to 139 °C for the second.

First: CC(C)c1cccc(C(C)C)c1NC(=O)CN1CCN(CCSc2nc3cccc(-c4cc[nH]n4)c3o2)CC1 [Example 103, 2-[4-[2-[7-(pyrazol-3-yl)benzoxazol-2-ylthio]ethyl]piperazin-1-yl]-N-(2,6-diisopropylphenyl)acetamide]
Second: Cc1cc(SC(C)C)c(NC(=O)CN2CCN(CCSc3nc4cccc([N+](=O)[O-])c4o3)CC2)c(SC(C)C)n1 [Example 107, 2-[4-[2-(7-nitrobenzoxazol-2-ylthio)ethyl]-piperazin-1-yl]-N-[2,4-bis(isopropylthio)-6-methyl-3-pyridyl]acetamide]
The melting point of the first is higher: 181 to 183 °C for the first, 57 to 59 °C for the second.

First: CCSC1=C(NC(=O)CN2CCN(CCSc3nc4c(C)c(Cl)cc(C(C)C)c4o3)CC2)C=CC(C)(SCC)N1 (centres unmarked) [Example 109, 2-[4-[2-(5-chloro-7-isopropyl-4-methylbenzoxazol-2-ylthio)ethyl]piperazin-1-yl]-N-[2,6-bis(ethylthio)-6-methyl-3-pyridyl]acetamide]
Second: CCCCCCCN(CCN1CCN(CCSc2nc3c(C)c(Cl)cc(C(C)C)c3o2)CC1)C(=O)Nc1c(C(C)C)cc(O)cc1C(C)C [Example 116, N-[2-[4-[2-(5-chloro-7-isopropyl-4-methylbenzoxazol-2-ylthio)ethyl]piperazin-1-yl]ethyl]-N′-(2,6-diisopropyl-4-hydroxyphenyl)-N-heptylurea]
The melting point of the first is lower: 120 to 122 °C for the first, 138 to 140 °C for the second.

For `CC(C)c1cccc(C(C)C)c1NC(=O)CN1CCN(CCSc2nc3cccc(C(F)(F)F)c3o2)CC1` [Example 85, 2-[4-[2-(7-trifluoromethylbenzoxazol-2-ylthio)ethyl]piperazin-1-yl]-N-(2,6-diisopropylphenyl)acetamide], the melting point was 135 to 137 °C (dec.).
With `COc1cc2oc(SCCN3CCN(CC(=O)Nc4c(C(C)C)cccc4C(C)C)CC3)nc2c(OC)c1OC` [Example 98, 2-[4-[2-(4,5,6-trimethoxybenzoxazol-2-ylthio)ethyl]piperazin-1-yl]-N-(2,6-diisopropylphenyl)acetamide] the melting point was 126 to 129 °C (dec.).

From patent US6969711B2, “Cyclic diamine compounds and medicine containing the same” (Kowa Company, Ltd., priority 1997, dated 2005)
